From ChEMBL document CHEMBL5331051, “Cationic, amphipathic small molecules based on a triazine-piperazine-triazine scaffold as a new class of antimicrobial agents” (Eur J Med Chem, 2022)
Converted amounts (≈) assume the structure as drawn. The source made the active and inactive calls. The calls are words filed in the database; no cut-off is given here.

Tests used:
Pseudomonas aeruginosa [1] = experiment: Synergistic antibacterial activity against multidrug-resistant Pseudomonas aeruginosa CCARM 2095 strain assessed as fractional inhibitory concentration index in presence of ciprofloxacin by checkerboard assay; assay type: functional
Pseudomonas aeruginosa [2] = experiment: Synergistic antibacterial activity against multidrug-resistant Pseudomonas aeruginosa CCARM 2095 strain assessed as ciprofloxacin fractional inhibitory concentration in presence of ciprofloxacin by checkerboard assay; assay type: functional
[3] = test system: Staphylococcus epidermidis; experiment: Antibacterial activity against Staphylococcus epidermidis KCTC 1917 strain assessed as bacterial growth inhibition measured at 18 to 24 hrs by microdilution assay; assay type: functional; conditions: time 18-24 hrs
Staphylococcus aureus [4] = experiment: Antibacterial activity against methicillin-resistant Staphylococcus aureus CCARM 3090 strain assessed as bacterial growth inhibition measured at 18 to 24 hrs by microdilution assay; assay type: functional; conditions: time 18-24 hrs
Staphylococcus aureus [5] = experiment: Additive antibacterial activity against methicillin-resistant Staphylococcus aureus CCARM 3089 strain assessed as chloramphenicol MIC by checkerboard assay; assay type: functional
DNA = experiment: Binding affinity to plasmid DNA (unknown origin) assessed as retardation of DNA migration at 4 to 8 ug/ml incubated for 1 hr by agarose gel electrophoresis method; assay type: nucleic-acid assay; conditions: dose 4-8 µg/ml
Staphylococcus aureus [6] = experiment: Synergistic antibacterial activity against methicillin-resistant Staphylococcus aureus CCARM 3089 strain assessed as bacterial growth inhibition in presence of oxacillin by checkerboard assay; assay type: functional
Escherichia coli [7] = experiment: Antibacterial activity against Escherichia coli KCTC 1682 strain assessed as bacterial growth inhibition measured after 6 hrs in presence of chymotrypsin by radial diffusion assay; assay type: functional, organism-based
Staphylococcus aureus [8] = experiment: Antibacterial activity against Staphylococcus aureus KCTC 1621 strain assessed as bacterial growth inhibition measured at 18 to 24 hrs by microdilution assay; assay type: functional; conditions: time 18-24 hrs
Staphylococcus aureus [9] = experiment: Additive antibacterial activity against methicillin-resistant Staphylococcus aureus CCARM 3089 strain assessed as bacterial growth inhibition in presence of chloramphenicol by checkerboard assay; assay type: functional
Pseudomonas aeruginosa [10] = experiment: Synergistic antibacterial activity against multidrug-resistant Pseudomonas aeruginosa CCARM 2095 strain assessed as bacterial growth inhibition in presence of chloramphenicol by checkerboard assay; assay type: functional
Staphylococcus aureus [11] = experiment: Synergistic antibacterial activity against multidrug-resistant Staphylococcus aureus CCARM 3089 strain assessed as fractional inhibitory concentration index in presence of ciprofloxacin by checkerboard assay; assay type: functional
Staphylococcus aureus [12] = experiment: Synergistic antibacterial activity against multidrug-resistant Staphylococcus aureus CCARM 3089 strain assessed as oxacillin fractional inhibitory concentration by checkerboard assay; assay type: functional
Staphylococcus aureus [13] = experiment: Antibacterial activity against methicillin-resistant Staphylococcus aureus CCARM 3089 strain assessed as bacterial growth inhibition by checkerboard assay; assay type: functional
Pseudomonas aeruginosa [14] = experiment: Synergistic antibacterial activity against multidrug-resistant Pseudomonas aeruginosa CCARM 2095 strain assessed as chloramphenicol fractional inhibitory concentration in presence of chloramphenicol by checkerboard assay; assay type: functional
Staphylococcus aureus [15] = experiment: Synergistic antibacterial activity against methicillin-resistant Staphylococcus aureus CCARM 3089 strain assessed as fractional inhibitory concentration in presence of oxacillin by checkerboard assay; assay type: functional
Escherichia coli [16] = experiment: Antibacterial activity against Escherichia coli KCTC 1682 strain assessed as bacterial growth inhibition measured at 18 to 24 hrs in presence of 4 uM FeCl3 by microdilution assay; assay type: functional; conditions: time 18-24 hrs
Pseudomonas aeruginosa [17] = experiment: Antibacterial activity against multidrug-resistant Pseudomonas aeruginosa CCARM 2095 strain assessed as bacterial growth inhibition measured at 18 to 24 hrs by microdilution assay; assay type: functional; conditions: time 18-24 hrs
Escherichia coli [18] = experiment: Antibacterial activity against Escherichia coli KCTC 1682 strain assessed as bacterial growth inhibition measured at 18 to 24 hrs in presence of 1 mM MgCl2 by microdilution assay; assay type: functional; conditions: time 18-24 hrs
Pseudomonas aeruginosa [19] = experiment: Synergistic antibacterial activity against multidrug-resistant Pseudomonas aeruginosa CCARM 2095 strain assessed as oxacillin fractional inhibitory concentration in presence of oxacillin by checkerboard assay; assay type: functional
Escherichia coli [20] = experiment: Antibacterial activity against Escherichia coli KCTC 1682 strain assessed as bacterial growth inhibition measured at 18 to 24 hrs in presence of 4.5 mM KCl by microdilution assay; assay type: functional; conditions: time 18-24 hrs
Lipopolysaccharide (LPS) = experiment: Displacement of BODIPY-TR-cadaverine from Escherichia coli O111:B4 lipopolysaccharide assessed as increase in fluorescence at 5 ug/ml by fluorescence based assay relative to control; conditions: dose 5.0 µg/ml
Escherichia coli [21] = experiment: Antibacterial activity against Escherichia coli KCTC 1682 strain assessed as bacterial growth inhibition measured after 6 hrs in presence of pepsin by radial diffusion assay; assay type: functional, organism-based
Staphylococcus aureus [22] = experiment: Additive antibacterial activity against multidrug-resistant Staphylococcus aureus CCARM 3089 strain assessed as ciprofloxacin fractional inhibitory concentration by checkerboard assay; assay type: functional
Staphylococcus aureus [23] = experiment: Synergistic antibacterial activity against methicillin-resistant Staphylococcus aureus CCARM 3089 strain assessed as fractional inhibitory concentration in presence of ciprofloxacin by checkerboard assay; assay type: functional
Escherichia coli [24] = experiment: Antibacterial activity against Escherichia coli KCTC 1682 strain assessed as bacterial growth inhibition measured at 18 to 24 hrs in presence of 150 mM NaCl by microdilution assay; assay type: functional; conditions: time 18-24 hrs
Escherichia coli [25] = experiment: Antibacterial activity against Escherichia coli KCTC 1682 strain assessed as bacterial growth inhibition measured at 18 to 24 hrs by microdilution assay; assay type: functional; conditions: time 18-24 hrs
RAW264.7 [26] = experiment: Antiinflammatory activity in LPS-induced mouse RAW264.7 cells assessed as reduction in TNF alpha level at 20 ug/ml measured after 72 hrs by ELISA assay relative to control; assay type: functional
Escherichia coli [27] = experiment: Antibacterial activity against Escherichia coli KCTC 1682 strain assessed as bacterial growth inhibition measured at 18 to 24 hrs in presence of 20% human serum by microdilution assay; assay type: functional; conditions: time 18-24 hrs
Staphylococcus aureus [28] = experiment: Antibacterial activity against Staphylococcus aureus KCTC 1621 strain assessed as bacterial growth inhibition measured at 18 to 24 hrs in presence of 6 uM NH4Cl by microdilution assay; assay type: functional; conditions: time 18-24 hrs
RAW264.7 [29] = experiment: Antiinflammatory activity in LPS-induced mouse RAW264.7 cells assessed as reduction in TNF alpha mRNA expression level at 20 ug/ml measured after 18 hrs by RT-PCR assay relative to control; assay type: functional, cell-based; conditions: dose 20.0 µg/ml
RAW264.7 [30] = experiment: Antiinflammatory activity in LPS-induced mouse RAW264.7 cells assessed as reduction in iNOS mRNA expression level at 5 ug/ml measured after 18 hrs by RT-PCR assay relative to control; assay type: functional, cell-based; conditions: dose 5.0 µg/ml
Staphylococcus aureus [31] = experiment: Antibacterial activity against Staphylococcus aureus KCTC 1621 strain assessed as bacterial growth inhibition measured at 18 to 24 hrs in presence of 20% human serum by microdilution assay; assay type: functional; conditions: time 18-24 hrs
Pseudomonas aeruginosa [32] = experiment: Synergistic antibacterial activity against multidrug-resistant Pseudomonas aeruginosa CCARM 2095 strain assessed as fractional inhibitory concentration index in presence of oxacillin by checkerboard assay; assay type: functional
Staphylococcus aureus [33] = experiment: Synergistic antibacterial activity against multidrug-resistant Staphylococcus aureus CCARM 3089 strain assessed as fractional inhibitory concentration index in presence of oxacillin by checkerboard assay; assay type: functional
Pseudomonas aeruginosa [34] = experiment: Synergistic antibacterial activity against multidrug-resistant Pseudomonas aeruginosa CCARM 2095 strain assessed as chloramphenicol fractional inhibitory concentration by checkerboard assay; assay type: functional
Staphylococcus aureus [35] = experiment: Antibacterial activity against Staphylococcus aureus KCTC 1621 strain assessed as bacterial growth inhibition measured at 18 to 24 hrs in presence of 150 mM NaCl by microdilution assay; assay type: functional; conditions: time 18-24 hrs
Pseudomonas aeruginosa [36] = experiment: Antibiofilm activity against multidrug-resistant Pseudomonas aeruginosa assessed as biofilm eradication; assay type: functional

SMILES | fractional inhibitory concentration index (FICI) (Pseudomonas aeruginosa [1]) | FIC (Pseudomonas aeruginosa [2]) | MIC [3] [µM] | MIC (Staphylococcus aureus [4]) [µM] | Activity (DNA) | MIC (Staphylococcus aureus [6]) [µg/mL] | Activity (Escherichia coli [7]) | MIC (Staphylococcus aureus [8]) [µM] | MIC (Pseudomonas aeruginosa [10]) [µg/mL] | fractional inhibitory concentration index (FICI) (Staphylococcus aureus [11]) | FIC (Staphylococcus aureus [12]) | MIC (Staphylococcus aureus [13]) [µg/mL] | FIC (Pseudomonas aeruginosa [14]) | FIC (Staphylococcus aureus [15]) | MIC (Escherichia coli [16]) [µM] | MIC (Pseudomonas aeruginosa [17]) [µM] | MIC (Escherichia coli [18]) [µM] | FIC (Pseudomonas aeruginosa [19]) | MIC (Escherichia coli [20]) [µM] | Activity (Lipopolysaccharide (LPS)) [%] | also measured
NCCCCNc1nc(NCCCCN)nc(N2CC(Cc3ccccc3)N(c3nc(NCCCCN)nc(NCCCCN)n3)CC2Cc2ccccc2)n1 (stereo unspecified) | 0.375 | 0.25 | 5.2 (≈ 4 µg/mL) | 5.2 (≈ 4 µg/mL) | Active | 1 | Active | 5.2 (≈ 4 µg/mL) | 8 | 0.375 | 0.25 | 4 | 0.25 | 0.25 | 10.4 | 41.6 (≈ 32 µg/mL) | 10.4 | 0.25 | 10.4 | > 50 | MIC (Staphylococcus aureus [5]): 64 µg/mL; MIC (Staphylococcus aureus [9]): 2 µg/mL; Activity (Escherichia coli [21]): Active; FIC (Staphylococcus aureus [22]): 0.125; FIC (Staphylococcus aureus [23]): 0.25; MIC (Escherichia coli [24]): 10.4 µM; MIC (Escherichia coli [25]): 10.4 µM (≈ 8 µg/mL); inhibition at 20 µg/mL (RAW264.7 [26]): 97.2%; MIC (Escherichia coli [27]): 10.4 µM; MIC (Staphylococcus aureus [28]): 5.2 µM; Activity (RAW264.7 [29]): Active; Activity (RAW264.7 [30]): Active; MIC (Staphylococcus aureus [31]): 10.4 µM; fractional inhibitory concentration index (FICI) (Pseudomonas aeruginosa [32]): 0.5; fractional inhibitory concentration index (FICI) (Staphylococcus aureus [33]): 0.5; FIC (Pseudomonas aeruginosa [34]): 0.125; MIC (Staphylococcus aureus [35]): 5.2 µM
NCCCN(CCCN)c1nc(NCc2ccccc2)nc(N2CC(Cc3ccccc3)N(c3nc(NCc4ccccc4)nc(N(CCCN)CCCN)n3)CC2Cc2ccccc2)n1 (stereo unspecified) | 0.312 | 0.25 | 5 (≈ 4.47 µg/mL) | 2.8 (≈ 2.5 µg/mL) | Active | 1 | Active | 2.5 (≈ 2.23 µg/mL) | 4 | 0.375 | 0.25 | 4 | 0.25 | 0.25 | 5 | 20 (≈ 17.9 µg/mL) | 5 | 0.25 | 5 | > 50 | MBEC50 (Pseudomonas aeruginosa [36]): 10 µM; MBEC90 (Pseudomonas aeruginosa [36]): 39.8 µM; Activity (Escherichia coli [21]): Active; FIC (Staphylococcus aureus [22]): 0.125; FIC (Staphylococcus aureus [23]): 0.25; MIC (Escherichia coli [24]): 2.5 µM; MIC (Escherichia coli [25]): 5 µM (≈ 4.47 µg/mL); inhibition at 20 µg/mL (RAW264.7 [26]): 95.4%; MIC (Escherichia coli [27]): 10 µM; MIC (Staphylococcus aureus [28]): 5 µM; Activity (RAW264.7 [29]): Active; Activity (RAW264.7 [30]): Active; MIC (Staphylococcus aureus [31]): 10 µM; fractional inhibitory concentration index (FICI) (Pseudomonas aeruginosa [32]): 0.5; fractional inhibitory concentration index (FICI) (Staphylococcus aureus [33]): 0.375; FIC (Pseudomonas aeruginosa [34]): 0.125; MIC (Staphylococcus aureus [35]): 2.5 µM
NCCN(CCN)c1nc(NCc2ccccc2)nc(N2CC(Cc3ccccc3)N(c3nc(NCc4ccccc4)nc(N(CCN)CCN)n3)CC2Cc2ccccc2)n1 (stereo unspecified) | 0.375 | 0.125 | 2.7 (≈ 2.26 µg/mL) | 5.4 (≈ 4.52 µg/mL) | Active | 1 | Active | 5.4 (≈ 4.52 µg/mL) | 4 | 0.375 | 0.25 | 4 | 0.25 | 0.25 | 10.8 | 21.4 (≈ 17.9 µg/mL) | 10.8 | 0.25 | 5.4 | 75 | MBEC50 (Pseudomonas aeruginosa [36]): 10.4 µM; MBEC90 (Pseudomonas aeruginosa [36]): 10.4 µM; Activity (Escherichia coli [21]): Active; FIC (Staphylococcus aureus [22]): 0.125; FIC (Staphylococcus aureus [23]): 0.25; MIC (Escherichia coli [24]): 5.4 µM; MIC (Escherichia coli [25]): 5.4 µM (≈ 4.52 µg/mL); inhibition at 20 µg/mL (RAW264.7 [26]): 95.6%; MIC (Escherichia coli [27]): 5.4 µM; MIC (Staphylococcus aureus [28]): 5.4 µM; Activity (RAW264.7 [29]): Active; Activity (RAW264.7 [30]): Active; MIC (Staphylococcus aureus [31]): 10.8 µM; fractional inhibitory concentration index (FICI) (Pseudomonas aeruginosa [32]): 0.375; fractional inhibitory concentration index (FICI) (Staphylococcus aureus [33]): 0.5; FIC (Pseudomonas aeruginosa [34]): 0.25; MIC (Staphylococcus aureus [35]): 5.4 µM
